This is an account of results in patent US12297235B2, “Synthetic peptide compounds and methods of use” (REALTA HOLDINGS, LLC, priority 2015, dated 2025).

Where two headings read alike, the source gives them in different places. Square brackets hold non-standard residues; d marks the D form. Ends that are not written are not given here. Peptide text beside a SMILES is read from it. Sar = CNCC(=O)O

One series has as its system Gardnerella. As to the kind of experiment: Gardnerella growth inhibition. Type of series: cell-based. As for the experimental part:
The plates were then incubated at 37° C. overnight and then the plates were read on a spectrophotometer at an absorbance of OD600 nm to determine the turbidity of the solution. Decreased turbidity is indicative of inhibition of bacterial growth.
Complement activation was assayed by measuring the production of C5a using ELISA methodology. […] The associated inflammation causes the symptoms of bacterial vaginosis and increases the risk of HIV-transmission by disrupting normal barrier defenses in the vagina.

Series [1] is classed as biochemical, human. The settings on record: 0.77 mM peptide in factor B-depleted serum. Here is the method:
(§1) Peptides were diluted to 0.77 mM in factor B-depleted human sera (Complement Technologies, Inc.) and incubated for 1 hour at 37° C. These peptides were then diluted with GVBS^++ to equal 2.5% serum, of which 0.25 ml was combined with 0.4 ml of GVBS^++ and 0.1 ml of sensitized sheep red blood cells (RBCs) and again incubated for 1 hour at 37° C. The procedure was stopped by the addition of 4.0 ml of GVBS^−− centrifuged for 5 minutes at 1,620×g, and the absorbance of the supernatants was read at 412 nm in a spectrophotometer. The percent lysis of each sample was standardized to that of the serum only control.
(§2) The final concentration of peptide in factor B-depleted serum was 0.77 mM. Each peptide was evaluated in triplicate and the mean values are reported. […] In the hemolytic assay, soluble peptides are standardized to water and insoluble peptides standardized to DMSO.
(§3) Polar Assortant peptides were serially diluted in undiluted factor B-depleted human sera (Complement Technologies, Inc.) and incubated for 1 hour at 37° C. Water, GVBS^++ and DMSO were included as controls. These peptides were then diluted with GVBS^++ to equal 2.5% serum, of which 0.25 ml was combined with 0.4 ml of GVBS^++ and 0.1 ml of sensitized sheep red blood cells (RBCs) and again incubated for 1 hour at 37° C. The procedure was stopped by the addition of 4.0 ml of GVBS^−−, centrifuged for 5 minutes at 1,620×g, and the absorbance of the supernatants was read at 412 nm in a spectrophotometer. The percent lysis of each sample was standardized to that of the serum only control.
(§4) The final concentration of peptide in factor B-depleted serum was 0.77 mM. […] In the hemolytic assay, soluble peptides were standardized to water and insoluble peptides standardized to DMSO.
(§5) The final concentration of peptide in factor B-depleted serum was 0.77 mM. […] In the hemolytic assay, soluble peptides are standardized to water and insoluble peptides standardized to DMSO.

The nature of another series: Solubility in water. It is filed as physicochemical.
Series [2] relates to complement activation in factor B-depleted human sera. It is filed as biochemical. The settings on record: factor B-depleted serum. As for the experimental part:
as §1, §2, §3, §4, §5

[3] abbreviates: standardized to water or DMSO, Table 6.

Take `CC[C@H](C)[C@H](N)C(=O)N[C@@H](C)C(=O)N[C@@H](CC(C)C)C(=O)N(C)CC(=O)N[C@@H](CC(C)C)C(=O)N[C@@H](CCC(=O)O)C(=O)N1CCC[C@H]1C(=O)N[C@H](C(=O)N[C@@H](CS)C(=O)N[C@@H](CS)C(=O)N[C@@H](CCC(N)=O)C(=O)N[C@@H](CCC(=O)O)C(=O)N[C@@H](CCCNC(=N)N)C(=O)N[C@@H](C)C(=O)N[C@@H](C)C(=O)O)[C@@H](C)CC` [PA-I4Sar] (H-IAL[Sar]LEPICCQERAA-OH): in the series with Gardnerella, the “Inhibition of Gardnerella growth” value is “inhibited the growth”.
The same measure, in the same setting: the same measure for `CC[C@H](C)[C@H](N)C(=O)N[C@@H](C)C(=O)N(C)CC(=O)N[C@H](C(=O)N[C@@H](CC(C)C)C(=O)N[C@@H](CCC(=O)O)C(=O)N1CCC[C@H]1C(=O)N[C@H](C(=O)N[C@@H](CS)C(=O)N[C@@H](CS)C(=O)N[C@@H](CCC(N)=O)C(=O)N[C@@H](CCC(=O)O)C(=O)N[C@@H](CCCNC(=N)N)C(=O)N[C@@H](C)C(=O)N[C@@H](C)C(=O)O)[C@@H](C)CC)[C@@H](C)CC` [PA-L3Sar] (H-IA[Sar]ILEPICCQERAA-OH): “inhibited the growth”; for `CC[C@H](C)[C@H](N)C(=O)N[C@@H](C)C(=O)N[C@@H](CC(C)C)C(=O)N[C@H](C(=O)N(C)CC(=O)N[C@@H](CCC(=O)O)C(=O)N1CCC[C@H]1C(=O)N[C@H](C(=O)N[C@@H](CS)C(=O)N[C@@H](CS)C(=O)N[C@@H](CCC(N)=O)C(=O)N[C@@H](CCC(=O)O)C(=O)N[C@@H](CCCNC(=N)N)C(=O)N[C@@H](C)C(=O)N[C@@H](C)C(=O)O)[C@@H](C)CC)[C@@H](C)CC` [PA-L5Sar] (H-IALI[Sar]EPICCQERAA-OH): “inhibited the growth”.
For `CC[C@H](C)[C@H](NC(=O)[C@H](CC(C)C)NC(=O)[C@H](C)N)C(=O)N[C@@H](CC(C)C)C(=O)N[C@@H](CCC(=O)O)C(=O)N1CCC[C@H]1C(=O)N[C@H](C(=O)N[C@@H](CS)C(=O)N[C@@H](CS)C(=O)N(C)CC(=O)N[C@@H](CCC(=O)O)C(=O)N[C@@H](CCCNC(=N)N)C(=O)N[C@@H](C)C(=O)N[C@@H](C)C(=O)O)[C@@H](C)CC` [PA-Q11Sar] (H-ALILEPICC[Sar]ERAA-OH; N-terminus and C-terminus assumed), the hemolysis in series [1] (human, mean of triplicate, standardized to water (soluble) or DMSO (insoluble)) turned out to be 3.02%. Besides, in “Solubility in water” (Table 5, sarcosine substitution peptides), the Solubility in water entry is listed as “No”.
In turn, `CC[C@H](C)[C@H](N)C(=O)N[C@@H](C)C(=O)N[C@@H](CC(C)C)C(=O)N[C@H](C(=O)N[C@@H](CC(C)C)C(=O)N[C@@H](CCC(=O)O)C(=O)N1CCC[C@H]1C(=O)N[C@H](C(=O)N[C@@H](CS)C(=O)N[C@@H](CS)C(=O)N[C@@H](CCC(N)=O)C(=O)N[C@@H](CCC(=O)O)C(=O)N[C@@H](CCCNC(=N)N)C(=O)N[C@@H](C)C(=O)N[C@@H](C)C(=O)NCCOCCOCCC(=O)O)[C@@H](C)CC)[C@@H](C)CC` [PA-dPEG02] came in with a hemolysis in series [1] (setting [3]) of 11.6%.
Same read-out and setting: next, `CC[C@H](C)[C@H](N)C(=O)N[C@@H](C)C(=O)N[C@@H](CC(C)C)C(=O)N[C@H](C(=O)N[C@@H](CC(C)C)C(=O)N[C@@H](CCC(=O)O)C(=O)N1CCC[C@H]1C(=O)N[C@H](C(=O)N[C@@H](CS)C(=O)N[C@@H](CS)C(=O)N[C@@H](CCC(N)=O)C(=O)N[C@@H](CCC(=O)O)C(=O)N[C@@H](CCCNC(=N)N)C(=O)N[C@@H](C)C(=O)N[C@@H](C)C(=O)NCCOCCOCCOCCC(=O)O)[C@@H](C)CC)[C@@H](C)CC` [PA-dPEG03]: 12.6%; `CC[C@H](C)[C@H](N)C(=O)N[C@@H](C)C(=O)N[C@@H](CC(C)C)C(=O)N[C@H](C(=O)N[C@@H](CC(C)C)C(=O)N[C@@H](CCC(=O)O)C(=O)N1CCC[C@H]1C(=O)N[C@H](C(=O)N[C@@H](CS)C(=O)N[C@@H](CS)C(=O)N[C@@H](CCC(N)=O)C(=O)N[C@@H](CCC(=O)O)C(=O)N[C@@H](CCCNC(=N)N)C(=O)N[C@@H](C)C(=O)N[C@@H](C)C(=O)NCCOCCOCCOCCOCCC(=O)O)[C@@H](C)CC)[C@@H](C)CC` [PA-dPEG04]: 12.4%; `CC[C@H](C)[C@H](N)C(=O)N[C@@H](C)C(=O)N[C@@H](CC(C)C)C(=O)N[C@H](C(=O)N[C@@H](CC(C)C)C(=O)N[C@@H](CCC(=O)O)C(=O)N1CCC[C@H]1C(=O)N[C@H](C(=O)N[C@@H](CS)C(=O)N[C@@H](CS)C(=O)N[C@@H](CCC(N)=O)C(=O)N[C@@H](CCC(=O)O)C(=O)N[C@@H](CCCNC(=N)N)C(=O)N[C@@H](C)C(=O)N[C@@H](C)C(=O)NCCOCCOCCOCCOCCOCCOCCC(=O)O)[C@@H](C)CC)[C@@H](C)CC` [PA-dPEG06]: 44.8%.
Same read-out and setting: the same measure for `CC[C@H](C)[C@H](N)C(=O)N[C@@H](C)C(=O)N[C@@H](CC(C)C)C(=O)N[C@H](C(=O)N[C@@H](CC(C)C)C(=O)N[C@@H](CCC(=O)O)C(=O)N1CCC[C@H]1C(=O)N[C@H](C(=O)N[C@@H](CS)C(=O)N[C@@H](CS)C(=O)N[C@@H](CCC(N)=O)C(=O)N[C@@H](CCC(=O)O)C(=O)N[C@@H](CCCNC(=N)N)C(=O)N[C@@H](C)C(=O)N[C@@H](C)C(=O)NCCOCCOCCOCCOCCOCCOCCOCCOCCC(=O)O)[C@@H](C)CC)[C@@H](C)CC` [PA-dPEG08]: 34.7%; for `CC[C@H](C)[C@H](N)C(=O)N[C@@H](C)C(=O)N[C@@H](CC(C)C)C(=O)N[C@H](C(=O)N[C@@H](CC(C)C)C(=O)N[C@@H](CCC(=O)O)C(=O)N1CCC[C@H]1C(=O)N[C@H](C(=O)N[C@@H](CS)C(=O)N[C@@H](CS)C(=O)N[C@@H](CCC(N)=O)C(=O)N[C@@H](CCC(=O)O)C(=O)N[C@@H](CCCNC(=N)N)C(=O)N[C@@H](C)C(=O)N[C@@H](C)C(=O)NCCOCCOCCOCCOCCOCCOCCOCCOCCOCCOCCOCCOCCC(=O)O)[C@@H](C)CC)[C@@H](C)CC` [PA-dPEG12]: 11.4%; for `CC[C@H](C)[C@H](N)C(=O)N[C@@H](C)C(=O)N[C@@H](CC(C)C)C(=O)N[C@H](C(=O)N[C@@H](CC(C)C)C(=O)N[C@@H](CCC(=O)O)C(=O)N1CCC[C@H]1C(=O)N[C@H](C(=O)N[C@@H](CS)C(=O)N[C@@H](CS)C(=O)N[C@@H](CCC(N)=O)C(=O)N[C@@H](CCC(=O)O)C(=O)N[C@@H](CCCNC(=N)N)C(=O)N[C@@H](C)C(=O)N[C@@H](C)C(=O)NCCOCCOCCOCCOCCOCCOCCOCCOCCOCCOCCOCCOCCOCCOCCOCCOCCC(=O)O)[C@@H](C)CC)[C@@H](C)CC` [PA-dPEG16]: 12%.
Still for that read-out and setting: the same measure for `CC[C@H](C)[C@H](N)C(=O)N[C@@H](C)C(=O)N[C@@H](CC(C)C)C(=O)N[C@H](C(=O)N[C@@H](CC(C)C)C(=O)N[C@@H](CCC(=O)O)C(=O)N1CCC[C@H]1C(=O)N[C@H](C(=O)N[C@@H](CS)C(=O)N[C@@H](CS)C(=O)N[C@@H](CCC(N)=O)C(=O)N[C@@H](CCC(=O)O)C(=O)N[C@@H](CCCNC(=N)N)C(=O)N[C@@H](C)C(=O)N[C@@H](C)C(=O)NCCOCCOCCOCCOCCOCCOCCOCCOCCOCCOCCOCCOCCOCCOCCOCCOCCOCCOCCOCCOCCC(=O)O)[C@@H](C)CC)[C@@H](C)CC` [PA-dPEG20]: 11.4%.
As for `CC[C@H](C)[C@H](N)C(=O)N[C@@H](C)C(=O)N[C@@H](CC(C)C)C(=O)N[C@H](C(=O)N[C@@H](CC(C)C)C(=O)N[C@@H](CCC(=O)O)C(=O)N1CCC[C@H]1C(=O)N[C@H](C(=O)N[C@@H](CS)C(=O)N[C@@H](CS)C(=O)N[C@@H](CCC(N)=O)C(=O)N[C@@H](CCC(=O)O)C(=O)N[C@@H](CCCNC(=N)N)C(=O)N[C@@H](C)C(=O)N[C@@H](C)C(=O)O)[C@@H](C)CC)[C@@H](C)CC` [PA], the hemolysis in series [1] (mean of triplicate, standardized to water (soluble) or DMSO (insoluble)) was found to be 3.15%.
`CC[C@H](C)[C@H](N)C(=O)N[C@@H](C)C(=O)N[C@@H](CC(C)C)C(=O)N[C@H](C(=O)N[C@@H](CC(C)C)C(=O)N[C@@H](CCC(=O)O)C(=O)N(C)CC(=O)N[C@H](C(=O)N[C@@H](CS)C(=O)N[C@@H](CS)C(=O)N[C@@H](CCC(N)=O)C(=O)N[C@@H](CCC(=O)O)C(=O)N(C)CC(=O)N[C@@H](C)C(=O)N[C@@H](C)C(=O)O)[C@@H](C)CC)[C@@H](C)CC` [Peptide R13SarP7Sar, IALILE(Sar)ICCQE(Sar)AA] (H-IALILE[Sar]ICCQE[Sar]AA-OH): in “Solubility in water” (Table 7, PEGylated and Sar/Ala substitution peptides), the Solubility in water result is on record as “No”.
Turning to “dPEG24-IALILEPICCQERAA (cysteine pairing not given here) [dPEG24-PA]”, the “Complement inhibition in hemolytic assay” value in series [2] is “varying degrees of complement inhibition”.
Same read-out and setting: the same measure for “dPEG24-IALILEPICCQERAA-dPEG24 (cysteine pairing not given here) [dPEG24-PA-dPEG24]”: “varying degrees of complement inhibition”.
